From patent US20230365488A1, “TRUXILLIC ACID MONOESTER-DERIVATIVES AS SELECTIVE FABP5 INHIBITORS AND PHARMACEUTICAL COMPOSITIONS AND USES THEREOF” (The Research Foundation for The State University of New York, priority 2020, published 2023)

Assays:
[1] = molecular target: FABP3 (Homo sapiens (Human), UniProt P05413); assay: FABP3 fluorescent probe displacement binding assay; conditions: average ± S.E. of at least three independent experiments
[2] = molecular target: FABP5 (Homo sapiens (Human), UniProt Q01469); assay: FABP5 fluorescent probe displacement binding assay; conditions: for Ki: average ± S.E. of at least three independent experiments; for FABP3 Ki/FABP5 Ki: selectivity ratio FABP3 over FABP5
Chain of FABP5 (Q01469 whole entry): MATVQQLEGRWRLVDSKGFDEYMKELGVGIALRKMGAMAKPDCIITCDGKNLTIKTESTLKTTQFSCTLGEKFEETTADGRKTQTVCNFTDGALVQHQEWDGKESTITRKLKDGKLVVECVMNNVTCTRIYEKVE

[3] = molecular target: FABP7 (Homo sapiens (Human), UniProt O15540); assay: FABP7 fluorescent probe displacement binding assay; conditions: average ± S.E. of at least three independent experiments
Chain of FABP7 (O15540 whole entry): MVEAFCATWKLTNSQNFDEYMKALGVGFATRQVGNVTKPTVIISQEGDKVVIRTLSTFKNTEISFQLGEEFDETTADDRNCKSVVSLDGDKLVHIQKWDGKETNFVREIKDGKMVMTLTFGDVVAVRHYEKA

[4] = test system: PC-3 (human metastatic prostate cancer) cells; assay: Cytotoxicity (MTT) assay, PC-3 (Example 5); type: cell-based; conditions: 72-hour incubation, 1% FBS, read-out: PC3 IC50
[5] = test system: HepG2 (human liver cancer) cells; assay: Cytotoxicity (MTT) assay, HepG2 (Example 5); type: cell-based; conditions: 72-hour incubation, 1% FBS
[6] = test system: WI-38 (human normal lung fibroblast) cells; assay: Cytotoxicity (MTT) assay, WI-38 (Example 5); type: cell-based; conditions: 72-hour incubation, 1% FBS

Chain of FABP3 (P05413 whole entry): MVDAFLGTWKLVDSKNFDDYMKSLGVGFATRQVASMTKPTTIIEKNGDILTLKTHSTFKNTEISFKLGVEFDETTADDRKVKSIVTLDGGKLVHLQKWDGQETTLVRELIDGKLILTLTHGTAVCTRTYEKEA

Row | SMILES | Ki [1] | Ki [2] | FABP3 Ki/FABP5 Ki [2] | Ki [3] | IC50 [4] | IC50 [5] | IC50 [6]
1 | COc1ccccc1C1[C@@H](C(=O)O)[C@@H](c2ccccc2OC)[C@@H]1C(=O)Oc1cccc(-c2ccc(F)cc2)c1 (mixture of isomers) [Compound 1e, (±)-α-2,4-di (2-methoxyphenyl)-3-[3-(4-fluorophenyl)phenoxycarbonyl]cyclobutane-1-carboxylic acid] | 2.28 ± 0.36 µM | 1.03 ± 0.11 µM | 2.2 | 0.99 ± 0.53 µM | 6.79 µM | 9.41 µM | 27.3 µM
2 | COc1ccccc1C1[C@@H](C(=O)O)[C@@H](c2ccccc2OC)[C@@H]1C(=O)Oc1cccc(-c2cccc3c2OCCO3)c1 (mixture of isomers) [Compound 1g, (±)-α-3-[3-(2,3-dihydrobenzo[b][1,4]dioxin-5-yl)phenoxycarbonyl]-2,4-di(2-methoxyphanyl)cyclobutane-1-carboxylic acid] | 4.02 ± 1.04 µM | 0.41 ± 0.15 µM | 9.8 | 0.91 ± 0.03 µM | 4.53 µM | 8.87 µM | 49.8 µM
3 | O=C(O)[C@@H]1C(c2ccccc2)[C@@H](C(=O)Oc2ccccc2-c2ccc3c(c2)OCO3)[C@@H]1c1ccccc1 (mixture of isomers) [Compound 1i, (±)-α-3-[2-(benzo[d][1,3]dioxol-5-yl)phenoxycarbonyl]-2,4-di (2-dimethoxyphenyl)cyclobutane-1-dicarboxylic acid] | 1.13 ± 0.15 µM | 0.79 ± 0.18 µM | 1.4 | 0.32 ± 0.13 µM | – | – | –
4 | COc1ccccc1C1[C@@H](C(=O)O)[C@@H](c2ccccc2OC)[C@@H]1C(=O)Oc1cccc(-c2ccc3c(c2)NC(=O)C3)c1 (mixture of isomers) [Compound 1j, (±)-α-2,4-di (2-methoxyphenyl)-3-[3-(2-oxoindolin-6-yl)phenoxycarbonyl]cyclobutane-1-carboxylic acid] | 3.29 ± 0.45 µM | 1.06 ± 0.08 µM | – | – | – | – | –
5 | COc1ccccc1[C@@H]1[C@H](C(=O)O)[C@@H](c2ccccc2OC)[C@H]1C(=O)Oc1ccc2cc(-c3cncnc3)ccc2c1 (racemic) [Compound 1k, (±)-α-2,4-di (2-methoxyphenyl)-3-[7-(5-pyrimidine)naphthalen-2-yloxycarbonyl]cyclobutane-1-carboxylic acid] | 4.78 ± 0.18 µM | 1.3 ± 0.09 µM | 3.7 | 6.36 ± 1.04 µM | – | – | –
6 | COc1ccccc1C1[C@@H](C(=O)O)[C@@H](c2ccccc2OC)[C@@H]1C(=O)OC1Cc2ccccc2C1 (mixture of isomers) [Compound 1l, (±)-α-3-(2,3-dihydro-1-inden-2-yloxycarbonyl)-2,4-di (2-methoxyphenyl)cyclobutane-1-carboxylic acid] | 53.8 ± 7.28 µM | – | – | 53.8 ± 7.28 µM | 48.9 µM | 45.5 µM | 63.7 µM
7 | COc1ccccc1C1[C@@H](C(=O)O)[C@@H](c2ccccc2OC)[C@@H]1C(=O)Oc1cccc(-c2ccc(C#N)cc2)c1 (mixture of isomers) [Compound 1p, (±)-3-(4′-cyano-1,1′-biphenyl-3-yloxycarbonyl)-2,4-di (2-methoxyphenyl)cyclobutane-1-carboxylic acid] | 4.64 ± 0.04 µM | 1.74 ± 0.08 µM | 2.7 | 3.16 ± 0.43 µM | – | – | –
8 | COc1ccccc1C1[C@@H](C(=O)O)[C@@H](c2ccccc2OC)[C@@H]1C(=O)Oc1ccccc1-c1ccc2c(c1)OCCO2 (mixture of isomers) [Compound 1s, (±)-α-3-[2-(2,3-dihydrobenzo[b][1,4]dioxin-6-yl)phenoxycarbonyl]-2,4-bis(2-methoxyphenyl)cyclobutane-1-carboxylic acid] | 2.29 ± 0.56 µM | 2.81 ± 0.42 µM | 0.8 | 0.67 ± 0.15 µM | – | – | –
9 | N#Cc1ccc(-c2ccccc2OC(=O)[C@H]2C(c3ccccc3)[C@@H](C(=O)O)[C@H]2c2ccccc2)cc1 (mixture of isomers) [Compound 2d, (±)-γ-3-(4′-cyano-1,1′-biphenyl]-2-yloxycarbonyl)-2,4-diphenylcyclobutane-1-carboxylic acid] | 5.78 ± 1.3 µM | 1.39 ± 0.07 µM | 4.1 | 0.95 ± 0.05 µM | – | – | –
10 | COc1ccccc1[C@H]1[C@H](C(=O)O)[C@H](c2ccccc2OC)[C@@H]1C(=O)Oc1cccc(-c2ccc(F)cc2)c1 (racemic) [Compound 2e, (±)-γ-3-(4′-fluoro-1,1′-biphenyl-3-yl)oxycarbonyl-2,4-di (2-methoxyphenyl)cyclobutane-1-carboxylic acid] | 6.1 ± 1.34 µM | 1.77 ± 0.02 µM | 3.4 | 3.59 ± 0.24 µM | – | – | –
11 | COc1ccccc1[C@H]1[C@H](C(=O)O)[C@H](c2ccccc2OC)[C@@H]1C(=O)Oc1cccc2ccccc12 (racemic) [Compound 2f, (±)-γ-2,4-di (2-methoxyphenyl)-3-(naphthalen-1-yloxycarbonyl)cyclobutane-1-carboxylic acid] | 1.66 ± 0.45 µM | – | – | 1.45 ± 0.52 µM | – | – | –
12 | COc1ccccc1C1[C@@H](C(=O)O)[C@@H](c2ccccc2OC)[C@H]1C(=O)Oc1cccc(-c2ccc(C#N)cc2)c1 (mixture of isomers) [Compound 2g, (±)-γ-3-(4′-cyano-1,1′-biphenyl]-3-yloxycarbonyl)-2,4-di (2-methoxyphenyl)cyclobutane-1-carboxylic acid] | 27.9 ± 6.37 µM | 2.46 ± 0.19 µM | 11.3 | 9.11 ± 1.47 µM | – | – | –
13 | COc1ccccc1C1[C@@H](C(=O)O)[C@@H](c2ccccc2OC)[C@H]1C(=O)Oc1cccc(-c2ccc3c(c2)OCCO3)c1 (mixture of isomers) [Compound 2k, (±)-γ-3-[3-(2,3-dihydrobenzo[b][1,4]dioxin-6-yl)phenoxycarbonyl]-2,4-di(2-methoxyphenyl)cyclobutane-1-carboxylic acid] | 8.18 ± 2.67 µM | 3.69 ± 0.65 µM | 2.2 | 5.12 ± 0.32 µM | – | – | –
14 | COc1ccccc1C1[C@@H](C(=O)OC2Cc3ccccc3C2)[C@@H](c2ccccc2OC)[C@H]1C(=O)O (mixture of isomers) [Compound 2l, (±)-γ-3-(2,3-dihydro-1H-inden-2-yloxycarbonyl)-2,4-bis(2-methoxyphenyl)cyclobutane-1-carboxylic acid] | 136 ± 16.4 µM | – | – | 5.14 ± 0.27 µM | – | – | –
15 | O=C(O)[C@H]1[C@H](c2ccccc2)[C@@H](C(=O)Oc2ccc3cc(-c4cncnc4)ccc3c2)[C@H]1c1ccccc1 (racemic) [Compound 2m, (±)-γ-2,4-diphenyl-3-[6-(pyrimidin-5-yl)naphthalen-2-yloxy)carbonyl]cyclobutane-1-carboxylic acid] | 1.3 ± 0.18 µM | 2.56 ± 0.17 µM | 0.51 | 4.19 ± 0.71 µM | – | – | –
16 | O=C1CCc2cc(-c3cccc(OC(=O)[C@H]4[C@@H](c5ccccc5)[C@@H](C(=O)O)[C@@H]4c4ccccc4)c3)ccc2N1 (racemic) [Compound 2n, (±)-γ-3-[(3-(2-oxo-1,2,3,4-tetrahydroquinolin-6-yl)phenoxycarbonyl]-2,4-diphenylcyclobutane-1-carboxylic acid] | 4.07 ± 0.24 µM | 7.59 ± 1.11 µM | 0.54 | 3.49 ± 0.49 µM | – | – | –
17 | O=C(O)[C@H]1[C@H](c2ccccc2)[C@H](C(=O)OCc2cccc3ccccc23)[C@H]1c1ccccc1 [Compound 1r, α-2,4-diphenyl-3-(1-naphthaylmethyl)cyclobutane-1-carboxylic acid] | 51.2 ± 5.71 µM | 2.64 ± 0.01 µM | 9.0 | 10.2 ± 1.42 µM | – | – | –
18 | COc1ccccc1[C@H]1[C@H](C(=O)O)[C@H](c2ccccc2OC)[C@H]1C(=O)OCC1(F)c2ccccc2-c2ccccc21 [Compound 1t] | 25.9 ± 2.4 µM | 1.83 ± 0.27 µM | 14.2 | 7.72 ± 1.2 µM | – | – | –
19 | O=C1CCc2ccc(-c3cccc(OC(=O)[C@H]4[C@@H](c5ccccc5)[C@H](C(=O)O)[C@@H]4c4ccccc4)c3)cc2N1 [Compound 1u] | 7.67 ± 0.71 µM | 0.59 ± 0.08 µM | 13.0 | 0.33 ± 0.01 µM | – | – | –
20 | O=C(O)[C@H]1[C@@H](c2ccccc2)[C@H](C(=O)OC2Cc3ccccc3C2)[C@@H]1c1ccccc1 [Compound 1v] | > 10 µM | – | – | 2.41 ± 0.09 µM | – | – | –
21 | O=C(O)[C@H]1[C@H](c2ccccc2)[C@H](C(=O)Oc2cccc3ccccc23)[C@H]1c1ccccc1 [Compound 1x] | 2.7 ± 0.42 µM | – | – | 0.45 ± 0.07 µM | – | – | –
22 | O=C(O)[C@H]1[C@H](c2ccccc2)[C@H](C(=O)Oc2ccccc2-c2ccccc2)[C@H]1c1ccccc1 [Compound 1z] | 0.7 ± 0.42 µM | – | – | – | – | – | –
23 | O=C(O)[C@@H]1[C@@H](c2ccccc2)[C@H](C(=O)OC2Cc3ccccc3C2)[C@H]1c1ccccc1 [Compound 3a, (±)-ε-3-[(2,3-dihydro-1H-inden-2-yl)oxycarbonyl]-2,4-diphenylcyclobutane-1-carboxylic acid] | 4.75 ± 0.57 µM | – | – | 2.07 ± 0.09 µM | – | – | –
24 | O=C(O)[C@@H]1[C@@H](c2ccccc2)[C@H](C(=O)Oc2cccc(-c3ccccc3)c2)[C@H]1c1ccccc1 [Compound 3b, (±) -ε-3-(1,1′-biphenyl-3-yloxycarbonyl)-2,4-diphenylcyclobutane-1-carboxylic acid] | 18.6 ± 0.73 µM | – | – | 2.15 ± 0.09 µM | – | – | –
25 | O=C(O)[C@@H]1[C@@H](c2ccccc2)[C@H](C(=O)Oc2cccc(-c3ccc4c(c3)OCCO4)c2)[C@H]1c1ccccc1 [Compound 3d, (±)-ε-3-[3-(2,3-dihydrobenzo[b][1,4]dioxin-6-yl)phenoxycarbonyl]-2,4-diphenylcyclobutane-1-carboxylic acid] | 7.84 ± 0.7 µM | 3.15 ± 0.28 µM | 2.5 | 1.49 ± 0.15 µM | – | – | –
26 | COc1ccccc1[C@H]1[C@H](C(=O)O)[C@H](c2ccccc2OC)[C@@H]1C(=O)Oc1cccc(-c2ccc(F)cc2)c1 [Compound 3e, ε-2,4-diphenyl-3-(4-fluorophenyl)phenoxycarbonylcyclobutane-1-carboxylic acid] | 15.5 ± 1.91 µM | 3.4 ± 0.52 µM | 4.7 | 2.19 ± 0.04 µM | – | – | –
27 | O=C(O)[C@@H]1[C@@H](c2ccccc2)[C@H](C(=O)Oc2cccc3ccccc23)[C@H]1c1ccccc1 [Compound 3g] | 0.32 ± 0.03 µM | – | – | 0.38 ± 0.08 µM | 10.6 µM | 36.9 µM | 54.2 µM
